Data on seven compounds can be found in US20190239509A1, “METHOD OF CONTROLLING PLANTS” (SYNGENTA PARTICIPATIONS AG, priority 2016, published 2019).

What all share (assay type): in vivo
For data set [1], the system named is ECHCG (Echinochloa crus-galli). The data set can be described thus: B1 glasshouse post-emergence herbicidal activity, ECHCG. The note with it: after 14 days, 100=total damage, 0=no damage. On the procedure:
(§1) Seeds of a variety of test species HORVW (Hordeum vulgare—barley), ABUTH (Abutilon theophrasti), AMARE (Amaranthus retroflexus) and ECHCG (Echinochloa crus-galli) were sown in standard soil in pots. After cultivation for 10 days cultivation under controlled conditions in a glasshouse (at 24/16° C., day/night; 14 hours light; 65% humidity), the plants were sprayed with an aqueous spray solution derived from the formulation of the technical active ingredient in 0.6 ml acetone and 45 ml formulation solution containing 10.6% Emulsogen EL (Registry number 61791-12-6), 42.2% N-methyl pyrrolidone, 42.2% dipropylene glycol monomethyl ether (CAS RN 34590-94-8) and 0.2% X-77 (CAS RN 11097-66-8).
(§2) The test plants were then grown in a glasshouse under controlled conditions in a glasshouse (at 24/16° C., day/night; 14 hours light; 65% humidity) and watered twice daily. After 14 days, the test was evaluated (100=total damage to plant; 0=no damage to plant).

Data set [2] has as its system HORVW (Hordeum vulgare—barley). Briefly: B1 glasshouse post-emergence herbicidal activity, barley. The note with it: after 14 days, 100=total damage, 0=no damage. On the procedure:
as §1, §2

Data set [3] deals with AMARE (Amaranthus retroflexus). The data set can be described thus: B1 glasshouse post-emergence herbicidal activity, AMARE. The note with it: after 14 days, 100=total damage, 0=no damage. On the procedure: as §1, §2
Data set [4] deals with ABUTH (Abutilon theophrasti). The data set can be described thus: B1 glasshouse post-emergence herbicidal activity, ABUTH. Particulars: after 14 days, 100=total damage, 0=no damage. On the procedure:
as §1, §2

Data set [5] deals with Amaranthus viridis (AMAVI). The data set can be described thus: B2 drilled field trial Brazil, post-emergence, AMAVI. The note with it: 100 g ai/ha, 100=total damage, 0=no damage. On the procedure:
(§3) Seeds of a variety of test species were used in drilled field trials to look at the control of important weed species present in corn crops as well as the effect on soybean (a volunteer crop in corn). Trials were carried out in Brazil in the summer season.
(§4) Plot size was 10-12 m^2, and two replicates were carried out per treatment. Plants were treated post-emergence at the 4 leaf stage. Fungicides and insecticides were used as necessary for plant health. The test was evaluated at 7 and 30 days after application (Amaranthus viridis (AMAVI), Bidens pilosa (BIDPI), Euphorbia heterophylla (EPPHL)) and 9 and 37 days after application (Brachiaria plantaginea (BRAPL) and soybean (Glycine max GLXMA) with 100=total damage to plant and 0=no damage to plant.
(§5) Expected results were calculated using the Colby Formula.

Data set [6] has as its system soybean (Glycine max GLXMA). The data set can be described thus: B2 drilled field trial Brazil, post-emergence, soybean. Particulars: 100 g ai/ha, 100=total damage, 0=no damage. On the procedure:
as §3, §4, §5

The test system of data set [7] is Brachiaria plantaginea (BRAPL). The data set can be described thus: B2 drilled field trial Brazil, post-emergence, BRAPL. Particulars: 100 g ai/ha, 100=total damage, 0=no damage. On the procedure: as §3, §4, §5
Data set [8] has as its system Euphorbia heterophylla (EPPHL). The data set can be described thus: B2 drilled field trial Brazil, post-emergence, EPPHL. Particulars: 100 g ai/ha, 100=total damage, 0=no damage. On the procedure: as §3, §4, §5
Another data set deals with Bidens pilosa (BIDPI). Briefly: B2 drilled field trial Brazil, post-emergence, BIDPI. The note with it: 100 g ai/ha, 100=total damage, 0=no damage. On the procedure:
as §3, §4, §5

For the compound `COc1ccc(-n2nc(C)cc(C(=O)C3C(=O)CC(C)CC3=O)c2=O)cc1OC` (stereo not drawn) [Compound 2.2], the ECHCG in [1] (Rate 125 g/ha) and in data set [1] (Rate 250 g/ha) was 100 in each case. The HORVW in data set [2] (Rate 125 g/ha) and in data set [2] (Rate 250 g/ha) was 0 each time. The AMARE in data set [3] (Rate 125 g/ha) and in [3] (Rate 250 g/ha) was 100 in each case. In addition, the ABUTH in data set [4] (Rate 125 g/ha) and in data set [4] (Rate 250 g/ha) was 100 each time.
Regarding `COc1ccc(-n2nc(C)cc(C(=O)C3C(=O)C4CCC(C4)C3=O)c2=O)cc1OC` (stereo not drawn) [Compound 2.1, 3-[2-(3,4-dimethoxyphenyl)-6-methyl-3-oxo-pyridazine-4-carbonyl]bicyclo[3.2.1]octane-2,4-dione], the ECHCG in data set [1] (Rate 125 g/ha) and in data set [1] (Rate 250 g/ha) was 100 throughout. In addition, the HORVW in [2] (Rate 125 g/ha) and in data set [2] (Rate 250 g/ha) was 0 each time. Further, the AMARE in data set [3] (Rate 125 g/ha) and in data set [3] (Rate 250 g/ha) was 100 throughout. Besides, the ABUTH in data set [4] (Rate 125 g/ha) and in data set [4] (Rate 250 g/ha) was 100 each time.
With `COc1ccc(-n2nc(C)cc(C(=O)C3C(=O)CC(C)(C)CC3=O)c2=O)cc1OC` [Compound 2.4], the ECHCG in data set [1] (Rate 125 g/ha) and in data set [1] (Rate 250 g/ha) was 100 throughout. Besides, the results for the HORVW in data set [2] (Rate 125 g/ha) and in data set [2] (Rate 250 g/ha) were 0 and 10, respectively. The AMARE in data set [3] (Rate 125 g/ha) and in data set [3] (Rate 250 g/ha) was 100 in each case. In addition, the ABUTH in data set [4] (Rate 125 g/ha) and in data set [4] (Rate 250 g/ha) was 100 in each case.
As for `COc1ccc(-n2nc(C3CC3)cc(C(=O)C3C(=O)C4CCC(C4)C3=O)c2=O)cc1OC` (stereo not drawn) [Compound 2.9], the ECHCG in data set [1] (Rate 125 g/ha) and in data set [1] (Rate 250 g/ha) was 100 throughout. In addition, the HORVW worked out at 0 in data set [2] (Rate 125 g/ha) and 10 in [2] (Rate 250 g/ha). Further, the AMARE in data set [3] (Rate 125 g/ha) was 90; in [3] (Rate 250 g/ha) it was 100. Moreover, the ABUTH in data set [4] (Rate 125 g/ha) and in data set [4] (Rate 250 g/ha) was 100 each time.
For `COc1ccc(-n2nc(C)cc(C(=O)C3C(=O)C(C)(C)C(=O)C(C)(C)C3=O)c2=O)cc1OC` [Compound 2.5], the ECHCG in data set [1] (Rate 125 g/ha) and in data set [1] (Rate 250 g/ha) was 90 throughout. Moreover, the HORVW in data set [2] (Rate 125 g/ha) and in data set [2] (Rate 250 g/ha) was 0 each time. Besides, the AMARE in data set [3] (Rate 125 g/ha) and in data set [3] (Rate 250 g/ha) was 100 throughout. Besides, the ABUTH in data set [4] (Rate 125 g/ha) and in [4] (Rate 250 g/ha) was 100 each time.
On to `COc1ccc(-n2nc(C3CC3)cc(C(=O)C3C(=O)C(C)(C)C(=O)C(C)(C)C3=O)c2=O)cc1OC` [Compound 2.11, 6-[6-cyclopropyl-2-(3,4-dimethoxyphenyl)-3-oxo-pyridazine-4-carbonyl]-2,2,4,4-tetramethyl-cyclohexane-1,3,5-trione], for which the ECHCG in data set [1] (Rate 125 g/ha) and in data set [1] (Rate 250 g/ha) was 100 each time. For the same compound, the HORVW in data set [2] (Rate 125 g/ha) and in data set [2] (Rate 250 g/ha) was 0 in each case. Moreover, the AMARE in data set [3] (Rate 125 g/ha) and in data set [3] (Rate 250 g/ha) was 100 throughout. The ABUTH in data set [4] (Rate 125 g/ha) and in data set [4] (Rate 250 g/ha) was 100 each time.
As for `COc1ccc(-n2nc(C)cc(C(=O)C3C(=O)CCCC3=O)c2=O)cc1OC` [Compound 2.3, 2-[2-(3,4-Dimethoxyphenyl)-6-methyl-3-oxo-pyridazine-4-carbonyl]cyclohexane-1,3-dione], in data set [5] (7 days after application), the “AMAVI 7DAA Observed” value was 65. Also, the “AMAVI 30 DAA Observed” value in [5] (30 days after application) stood at 70. Moreover, the “GLXMA 9DAA Observed” value in data set [6] (9 days after application) was 55. Moreover, in data set [6] (37 days after application), the “GLXMA 37 DAA Observed” value worked out at 100. Also, the ECHCG in data set [1] (Rate 125 g/ha) and in data set [1] (Rate 250 g/ha) was 100 throughout. Also, the HORVW in data set [2] (Rate 125 g/ha) and in data set [2] (Rate 250 g/ha) was 0 throughout. Besides, in data set [7] (9 days after application), the “BRAPL 9DAA Observed” value was found to be 78. Besides, the “BRAPL 37 DAA Observed” value in data set [7] (37 days after application) stood at 37. Besides, the “EPPHL 7DAA Observed” value in data set [8] (7 days after application) is reported as 58. Moreover, the “EPPHL 30 DAA Observed” value in data set [8] (30 days after application) amounted to 42. Also, the “BIDPI 7DAA Observed” value with Bidens pilosa (BIDPI) (7 days after application) was found to be 45. For the same compound, in the data set on Bidens pilosa (BIDPI) (30 days after application), the “BIDPI 30 DAA Observed” value is 43. For the same compound, the AMARE in data set [3] (Rate 125 g/ha) and in data set [3] (Rate 250 g/ha) was 100 each time. Further, the ABUTH in [4] (Rate 125 g/ha) and in data set [4] (Rate 250 g/ha) was 100 each time.
